# Source: patent US7998935B2, “Quinaldine based semisquaraines and squaraine dyes, process for preparation thereof and use thereof” (Council of Scientific and Industrial Research, priority 2006, dated 2011)
# Experiments:
# [1] = Absorption and fluorescence emission spectra (photophysical properties); format: physicochemical
# Text: Semisquaraine of the general formula 1 in which a quinaldine moiety is linked to the squaric acid through methylene bridge have absorption around 480 nm with high molar extinction coefficient (4.0×10^4 M^−1 cm^−1) which depends on the substitution on the quanaldine unit. […] The absorption and fluorescence emission spectra of representative semisquaraine of the general formula 1 where X=OH, Y=H, Z=H, R^2=CH3 are shown in FIG. 1.
# Similar to the semisquaraines the absorption spectra of these dyes were also dependent on the substitution on the quinaldine moiety. […] The presence of electron withdrawing groups in the quinaldine ring shifts the absorption maxima towards the blue region. […] The absorption and fluorescence emission spectra of representative symmetrical squaraine dye of the general formula 2, where X=I, Y=H, R^2=CH3 are shown in FIG. 2.
# The absorption and fluorescence emission spectra of representative unsymmetrical squaraine dyes of the general formula 3, where X=C6H11O6, Y=H, Q=I, Z=H, R^2=CH3, are shown in FIG. 4.
# [2] = system: L1210 mouse lymphoma cells; experiment: Photocytotoxicity of squaraine dyes with and without visible light (cell survival / proliferation); format: cell-based; details: for toxicity in the dark: absence of light; for photocytotoxicity (% of cell survival with increasing concentration of dye): under illumination (visible light, 1000 W halogen lamp), on ice
# Method: FIG. 5: Photocytotoxicity of the squaraine dyes of general formula 2, where X=I, Y=H, R^2=CH3, and general formula 3, where X=OH, Y=H, Q=I, Z=H, R^2=CH3 in L1210 mouse lymphoma cells. Data gives the number of cell (% of controls) counted after 48 h after the treatment for 22.5 min at 0° C. with various concentrations of the squaraine dyes under dark and under irradiation. Data points represent the mean of three independent experiments (±SD).
# FIG. 6: Photocytotoxicity of the sugar linked and cholesterol-squaraine dyes of general formula 3, where X=C6H11O6, Y=H, Q=I, Z=H, R^2=CH3 and where X=C27H43O3, Y=H, Q=I, Z=H, R^2=CH3 L1210 mouse lymphoma cells. Data gives the number of cell (% of controls) counted after 48 h after the treatment for 22.5 min at 0° C. with various concentrations of the squaraine derivatives under dark and under irradiation. Data points represent the mean of three independent experiments (±SD).
# In order to analyze the cytotoxicity of the squaraine dyes of the general formula 2 wherein X=I, Y=H, R^2=CH3 and 3 wherein X=OH, Y=H, Q=I, Z=H, R^2=CH3, with and without visible light, the cloning efficiencies of L1210 mouse lymphoma cells exposed to various concentrations of the dyes were determined. The light exposure was carried out from a 1000 W halogen lamp at a distance of 33 cm in Ca^2+ and Mg^2+ free PBS (140 mM NaCl, 3 mM KCl, 8 mM […], pH 7.4) on ice (10^6 cells/mL). Illumination for 10 min corresponds to 225 kJ/m^2 between 400 and 800 nm. The cells were pelleted by centrifugation and resuspended in PBSG three times. The cells were resuspended at 3×10^4 cells/mL in fresh medium at 37° C. and the numbers of cells were counted repeatedly for 60 h. From the exponential part of the growth curves (between 24 and 60 h) the number of proliferating cells at the time of resuspension was calculated by extrapolation. Cell survival was defined as the ratio between proliferating and resuspended cells. Results obtained with representative quinaldine based squaraine dyes of the general formula 2 wherein X=I, Y=H, R^2=CH3 and 3 wherein X=OH, Y=H, Q=I, Z=H, are shown in FIG. 5.
# The cytotoxicity induced by squaraine dyes of the general formula 3 wherein X=C6H11O6, Y=H, Q=I, Z=H, R^2=CH3 and X=C27H43O3, Y=H, Q=I, Z=H, R^2=CH3 in mouse lymphoma cells L1210 with and without visible light, was carried out as explained in EXAMPLE 8. Results obtained with representative quinaldine based squaraine dyes of the general formula 3 wherein X=C6H11O6, Y=H, Q=I, Z=H, R^2=CH3 and X=C27H43O3, Y=H, Q=I, Z=H, R^2=CH3 are shown in FIG. 6.
# mammalian AS52 cells = experiment: Cytotoxicity in the presence and absence of light; format: cell-based
# Text: In the present invention, we have investigated the cytotoxicity of these dyes in mammalian AS52 cells both in the presence and absence of light.
absorption maxima ([1]; in methanol) [nm],SMILES,toxicity in the dark [2],photocytotoxicity (% of cell survival with increasing concentration of dye) [2],further results
–,CN1/C(=C/C2=C([O-])C(=C\c3ccc4cc(I)ccc4[n+]3C)/C2=O)C=Cc2cc(I)ccc21,less toxic in the dark,dose dependent photocytotoxicity,absorption maxima ([1]; in DMSO): around 750 nm; emission maxima ([1]; in dimethyl sulfoxide (DMSO)): around 772 nm
478,CCCCOc1c(C=C2C=Cc3cc(OCC)ccc3N2C)c(=O)c1=O,–,–,–
477,CCCCOc1c(C=C2C=Cc3cc(O)ccc3N2C)c(=O)c1=O,–,–,–
–,CN1/C(=C/C2=C([O-])C(=C\c3ccc4cc(O[C@@H]5O[C@H](CO)[C@@H](O)[C@H](O)[C@H]5O)ccc4[n+]3C)/C2=O)C=Cc2cc(I)ccc21,very less toxicity in the absence of light,dose dependent photocytotoxicity,cytotoxicity compared with diiodo squaraine dye of general formula 2 (X=I) (mammalian AS52 cells): more cytotoxic; cytotoxicity compared with hydroxyl-substituted squaraine dye of general formula 3 (X=OH) (mammalian AS52 cells): significantly high
–,CN1/C(=C/C2=C([O-])C(=C\c3ccc4cc(O)ccc4[n+]3C)/C2=O)C=Cc2cc(I)ccc21,less toxic in the dark,dose dependent photocytotoxicity,–
